The values that follow come from PubChem BioAssay (NCI).

Test systems include RXF 393 renal; BT-549 breast; IGROV1 ovarian; SF-539 CNS; OVCAR-3 ovarian; UACC-257 melanoma; MOLT-4 leukemia; HCT-116 colon; NCI-H522 lung; ACHN renal.
What all share (assay): inhibition of tumour cell growth, NCI panel, 48 h

Molecules are shown by their SMILES. “And” between values parts separate entries of the source, which are not always exact repeats. Equal values may be shown once.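 Grown in 96-well plates, cells were treated for 48 hours with each compound at five concentrations. Insufficient inhibition: endpoint recorded as highest concentration tested. Here, GI50 denotes the concentration required for 50% inhibition of growth. Definition used: TGI = concentration required for complete inhibition of growth.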 Some results are limits rather than exact numbers.

For `CN1C(=O)C(O)CC1c1cccc(C(F)(F)F)c1` (configuration not stated), the TGI in the experiment on RXF 393 renal, in the experiment on BT-549 breast, with IGROV1 ovarian, in the experiment on SF-539 CNS, with OVCAR-3 ovarian and with UACC-257 melanoma was over 100 µM each time. For the same compound, the TGI in the experiment with MOLT-4 leukemia, in the experiment with HCT-116 colon, in the experiment on NCI-H522 lung and in the experiment on ACHN renal was over 100 µM throughout.

Regarding `Cc1nc(-c2cc3cc(Cl)ccc3oc2=O)cc2c1c(=O)oc1ccc(Cl)cc12`, the TGI in the experiment with RXF 393 renal, in the experiment with BT-549 breast, in the experiment with IGROV1 ovarian, with OVCAR-3 ovarian, with UACC-257 melanoma and in the experiment with MOLT-4 leukemia was over 100 µM throughout. The TGI with HCT-116 colon, with NCI-H522 lung and with ACHN renal was over 100 µM each time.

`Cn1c2ccccc2n2c3ncccc3c(=S)c(C#N)c12`: the TGI with RXF 393 renal, in the experiment on BT-549 breast, in the experiment on IGROV1 ovarian, in the experiment with OVCAR-3 ovarian, in the experiment on MOLT-4 leukemia and in the experiment with HCT-116 colon was over 100 µM in each case. The TGI in the experiment with NCI-H522 lung and in the experiment on ACHN renal was over 100 µM throughout.

Consider `CC(=O)Nc1cc(Nc2cc(=O)[nH]c(=O)[nH]2)ccc1C`, for which the TGI with RXF 393 renal, with BT-549 breast, with IGROV1 ovarian, in the experiment with SF-539 CNS, with OVCAR-3 ovarian and with UACC-257 melanoma was over 100 µM each time. The TGI with HCT-116 colon and in the experiment with ACHN renal was over 100 µM each time.

In the case of `COc1ccccc1CNCCCCCCCCCCCCN1C(=O)c2ccc3c4c(ccc(c24)C1=O)C(=O)N(CCCCCCCCCCCCNCc1ccccc1OC)C3=O`, the GI50 is 0.922 µM in the experiment with RXF 393 renal; 7.74 µM in the experiment with BT-549 breast; over 50 µM with IGROV1 ovarian; over 5 µM in the experiment with UACC-257 melanoma; over 50 µM with MOLT-4 leukemia; over 50 µM in the experiment with NCI-H522 lung. For the same compound, in the experiment on ACHN renal, the GI50 was over 50 µM. In addition, the TGI in the experiment with RXF 393 renal is 2.11 µM; with BT-549 breast, 20.2 µM; with IGROV1 ovarian it was over 50 µM; in the experiment with UACC-257 melanoma it was over 5 µM; with MOLT-4 leukemia, over 50 µM; in the experiment with NCI-H522 lung, over 50 µM. The compound further showed a TGI in the experiment with ACHN renal of over 50 µM.

As for `S=C(NCc1ccccc1)N/N=C/c1ccccn1`, the TGI with BT-549 breast was over 100 µM; with IGROV1 ovarian it was over 62.8 µM; in the experiment on SF-539 CNS, over 100 µM; in the experiment with OVCAR-3 ovarian, over 100 µM; with UACC-257 melanoma it was over 100 µM; in the experiment with MOLT-4 leukemia, 16.6 µM. The TGI was 15.4 µM in the experiment with HCT-116 colon, 24.5 µM in the experiment on NCI-H522 lung and over 56.1 µM in the experiment on ACHN renal.

Regarding `CC1CC/C(=C\c2ccc(Cl)cc2)c2nc(N)c(C#N)c(-c3ccc(Cl)cc3)c21` (configuration not stated), the TGI in the experiment with BT-549 breast, with IGROV1 ovarian, in the experiment with SF-539 CNS, in the experiment with OVCAR-3 ovarian, in the experiment on UACC-257 melanoma and in the experiment with MOLT-4 leukemia was over 100 µM each time. The TGI in the experiment on HCT-116 colon, with NCI-H522 lung and with ACHN renal was over 100 µM in each case.

As to `O=[N+]([O-])c1ccc(C(Nc2ccccc2)c2ccc3cccnc3c2O)cc1` (configuration not stated), the TGI in the experiment on RXF 393 renal was 24.6 µM; in the experiment on BT-549 breast it was over 70.3 µM; in the experiment with IGROV1 ovarian, over 100 µM; in the experiment with SF-539 CNS it was 21.1 µM; in the experiment on OVCAR-3 ovarian, 33.6 µM; in the experiment on UACC-257 melanoma, 42.8 µM. The TGI was over 75.3 µM with HCT-116 colon, 28.6 µM with NCI-H522 lung and over 100 µM with ACHN renal.

For `C/C(=N\Nc1nc2ccccc2[nH]1)c1cc2ccccc2cn1`, the TGI is 21.2 µM in the experiment on BT-549 breast; 1.13 µM in the experiment with IGROV1 ovarian; 0.764 µM with SF-539 CNS; 0.911 µM in the experiment on OVCAR-3 ovarian; 5.67 µM in the experiment on UACC-257 melanoma; over 100 µM with MOLT-4 leukemia. Further, the TGI in the experiment on HCT-116 colon worked out at 1.04 µM; in the experiment on NCI-H522 lung it was 1.13 µM; in the experiment on ACHN renal, 0.638 µM.

As to `c1ccc(-c2nnn(CCN3CCCCC3)n2)cc1`, the TGI in the experiment on RXF 393 renal, in the experiment on BT-549 breast, in the experiment with IGROV1 ovarian, in the experiment on OVCAR-3 ovarian, in the experiment on UACC-257 melanoma and in the experiment on HCT-116 colon was over 100 µM throughout. Moreover, the TGI in the experiment on NCI-H522 lung and in the experiment with ACHN renal was over 100 µM throughout.

For the compound `CCOP(=O)(OCC)C(C)(CC)NC(=O)C(C(F)(F)F)C(F)(F)F` (configuration not stated), the TGI in the experiment on RXF 393 renal is over 100 µM; with BT-549 breast, 99.7 µM and > 100 µM; in the experiment on IGROV1 ovarian it was over 100 µM; in the experiment with SF-539 CNS, over 100 µM; in the experiment on OVCAR-3 ovarian it was over 100 µM; in the experiment with UACC-257 melanoma it was over 100 µM. Further, the TGI with MOLT-4 leukemia, with HCT-116 colon and with ACHN renal was over 100 µM in each case. The GI50 was 19.3 µM and 3.87 µM with BT-549 breast; 48.1 µM and > 100 µM in the experiment on SF-539 CNS.

On to `COc1ccc(CCN2CCc3c(C)c(C#N)c4nc5ccccc5n4c32)cc1OC`, for which the TGI was over 100 µM with RXF 393 renal; 84.2 µM in the experiment on BT-549 breast; over 100 µM with IGROV1 ovarian; over 100 µM with SF-539 CNS; over 100 µM with OVCAR-3 ovarian; over 100 µM in the experiment with UACC-257 melanoma. For the same compound, the figures for the TGI with HCT-116 colon, in the experiment with NCI-H522 lung and in the experiment with ACHN renal were over 100 µM, 57 µM and over 100 µM, respectively.

Turning to `CCOC(=O)c1cn(C)c(=S)n2c1nc1ccccc12`, the TGI in the experiment on RXF 393 renal, with BT-549 breast, with IGROV1 ovarian, in the experiment with SF-539 CNS, with OVCAR-3 ovarian and with UACC-257 melanoma was over 100 µM each time. Further, the TGI with MOLT-4 leukemia, in the experiment with HCT-116 colon and in the experiment on ACHN renal was over 100 µM each time.
